Laboratory results: ChEMBL document CHEMBL1201862, “PubChem BioAssay data set” (2004)
Active and inactive are the calls of the source.

Tests used:
[1] = toxicity to human HepG2 hepatoma cells – cell-based, plate reader, dry powder samples, cytotoxicity control, dose response (AID 1159569); format: functional;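 further: inhibitor potency with signal falling toward the positive control level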
[2] = P. falciparum Dd2 growth inhibitors, dose response, SYBR Green, cherry-picked samples (AID 1159567); format: functional, cell-based
[3] = growth inhibition of PfATP4-mutant resistant parasites – NITD609-resistant line, SYBR Green, dry powder, dose response (AID 1159571); format: functional, cell-based;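 further: parasites synchronized at ring stage by sorbitol before testing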
[4] = growth inhibition of yeast DHODH-expressing 3D7 parasites – SYBR Green, dry powder samples, dose response (AID 1159570); format: functional, cell-based;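 further: parasite growth measured after 72 hours of compound exposure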
[5] = Dd2 malaria parasite growth inhibition potency – SYBR Green, dry powder samples, dose response (AID 1159566); format: functional, cell-based;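 further: potency for growth inhibition with lower SYBR green DNA signal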
[6] = biological target: T1, Acyl-homoserine lactone acylase PvdQ (Pseudomonas aeruginosa (strain LESB58), UniProt Q9I194); assay: PvdQ acylase enzyme activity blockers – biochemical, fluorescence, plate reader and imaging, cherry-picks, dose response (AID 493231)
T1 sequence (Q9I194 whole entry): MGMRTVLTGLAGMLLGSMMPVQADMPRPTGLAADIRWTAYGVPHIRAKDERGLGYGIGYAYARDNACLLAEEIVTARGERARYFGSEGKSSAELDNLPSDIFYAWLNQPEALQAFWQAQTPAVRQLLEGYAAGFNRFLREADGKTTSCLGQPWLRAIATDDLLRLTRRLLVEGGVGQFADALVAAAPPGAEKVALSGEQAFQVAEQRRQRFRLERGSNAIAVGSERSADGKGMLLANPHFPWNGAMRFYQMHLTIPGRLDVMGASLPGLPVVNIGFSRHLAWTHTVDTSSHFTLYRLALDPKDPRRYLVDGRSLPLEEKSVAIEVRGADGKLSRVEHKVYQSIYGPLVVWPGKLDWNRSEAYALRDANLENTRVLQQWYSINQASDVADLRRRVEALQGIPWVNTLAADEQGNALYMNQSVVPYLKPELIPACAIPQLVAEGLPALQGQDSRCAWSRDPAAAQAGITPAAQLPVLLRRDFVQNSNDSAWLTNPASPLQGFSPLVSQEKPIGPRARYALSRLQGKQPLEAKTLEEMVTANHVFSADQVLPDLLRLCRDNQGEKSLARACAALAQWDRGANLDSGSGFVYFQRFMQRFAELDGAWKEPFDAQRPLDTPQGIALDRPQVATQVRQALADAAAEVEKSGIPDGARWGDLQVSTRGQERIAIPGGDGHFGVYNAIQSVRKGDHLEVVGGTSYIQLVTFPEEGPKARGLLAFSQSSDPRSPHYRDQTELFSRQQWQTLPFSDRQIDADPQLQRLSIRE

[7] = biological target: Peroxisome proliferator-activated receptor gamma/Nuclear receptor coactivator 2 (Homo sapiens, UniProt P37231); format: functional;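 further: agonist potency for raising coactivator recruitment to the receptor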
[8] = biological target: Peroxisome proliferator-activated receptor gamma/Nuclear receptor coactivator 1 (Homo sapiens, UniProt P37231); format: functional;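 further: agonist potency as compounds enhance coactivator SRC-1 recruitment to PPARgamma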
[9] = biological target: Glucose-6-phosphate 1-dehydrogenase (Homo sapiens, UniProt P11413); assay: inhibition of Homo sapiens G6PD, dose series – biochemical, fluorescence, selectivity assay for P. falciparum G6PD inhibitor project, dose response (AID 504792); format: functional
[10] = biological target: Peroxisome proliferator-activated receptor gamma/Nuclear receptor coactivator 3 (Homo sapiens, UniProt P37231); format: functional;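 further: agonist potency for raising coactivator recruitment to the receptor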
[11] = viability loss in THP-1 monocytes – THP-1 cells, cytotoxicity control for Vif-APOBEC3G degradation inhibitor project, dose response (AID 1117359); format: functional; conditions: THP-1
[12] = cells
[13] = mitochondrial function rescue without frataxin homolog – Friedreich's ataxia, plus single-dose screen, dose response (AID 1465); format: functional;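 further: yeast depleted of Yfh1p frataxin homolog grown on glycerol needing respiration; WST-1 tetrazolium dye reduction as measure of cellular dehydrogenase metabolic activity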
[14] = biological target: Glyceraldehyde-3-phosphate dehydrogenase (Homo sapiens, UniProt P04406)
[15] = biological target: T2, E3 ubiquitin-protein ligase XIAP (Homo sapiens, UniProt P98170); assay: Counter Screen using XIAP-Bir3 for Chemical Antagonists of Bir1/2 domains of IAP-family anti-apoptotic proteins. [Related pubchem assays (depositor defined):AID1018, AID1449, AID1514, AID1638, AID1749, AID1750, AID488957, AID488963]
[16] = biological target: T2, E3 ubiquitin-protein ligase XIAP; assay: small molecules displacing peptide from XIAP – biochemical, IAP family, fluorescence polarization (AID 1018); format: functional
[17] = biological target: T3, Leucine aminopeptidase (Plasmodium falciparum 3D7, UniProt Q8IL11); assay: P. falciparum M17LAP inhibitors, primary screen, biochemical, fluorogenic H-Leu-NHMec substrate, 1536-well (AID 1619); format: functional
T3 sequence (Q8IL11 whole entry): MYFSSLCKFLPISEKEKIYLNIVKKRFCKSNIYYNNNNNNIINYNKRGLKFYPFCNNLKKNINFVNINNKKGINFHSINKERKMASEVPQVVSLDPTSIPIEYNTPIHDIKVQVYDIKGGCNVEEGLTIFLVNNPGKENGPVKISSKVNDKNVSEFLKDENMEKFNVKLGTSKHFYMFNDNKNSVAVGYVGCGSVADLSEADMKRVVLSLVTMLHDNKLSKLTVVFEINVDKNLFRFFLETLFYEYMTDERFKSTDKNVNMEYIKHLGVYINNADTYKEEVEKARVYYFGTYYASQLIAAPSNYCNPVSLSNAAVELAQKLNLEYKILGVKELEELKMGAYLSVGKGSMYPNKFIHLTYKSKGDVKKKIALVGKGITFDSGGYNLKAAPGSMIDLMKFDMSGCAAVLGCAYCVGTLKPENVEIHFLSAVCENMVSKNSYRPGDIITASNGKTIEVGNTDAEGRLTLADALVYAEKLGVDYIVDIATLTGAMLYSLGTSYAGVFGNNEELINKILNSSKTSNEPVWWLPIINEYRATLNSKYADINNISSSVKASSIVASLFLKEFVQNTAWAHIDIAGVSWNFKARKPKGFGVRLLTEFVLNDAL

[18] = biological target: T4, Heat shock factor protein 1 (Mus musculus, UniProt P38532); assay: enhancement of HSF1-driven luciferase signal – cell-based, NIH3T3, luminescence, dose retest, confirmation (AID 435004); format: functional;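 further: stress induced by proteasome inhibitor MG132 added 30 min after compound; luciferase reporter driven by HSF1 response element in NIH3T3 cells; actives raise luminescence as potentiators of the MG132 stress response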
T4 sequence (P38532 whole entry): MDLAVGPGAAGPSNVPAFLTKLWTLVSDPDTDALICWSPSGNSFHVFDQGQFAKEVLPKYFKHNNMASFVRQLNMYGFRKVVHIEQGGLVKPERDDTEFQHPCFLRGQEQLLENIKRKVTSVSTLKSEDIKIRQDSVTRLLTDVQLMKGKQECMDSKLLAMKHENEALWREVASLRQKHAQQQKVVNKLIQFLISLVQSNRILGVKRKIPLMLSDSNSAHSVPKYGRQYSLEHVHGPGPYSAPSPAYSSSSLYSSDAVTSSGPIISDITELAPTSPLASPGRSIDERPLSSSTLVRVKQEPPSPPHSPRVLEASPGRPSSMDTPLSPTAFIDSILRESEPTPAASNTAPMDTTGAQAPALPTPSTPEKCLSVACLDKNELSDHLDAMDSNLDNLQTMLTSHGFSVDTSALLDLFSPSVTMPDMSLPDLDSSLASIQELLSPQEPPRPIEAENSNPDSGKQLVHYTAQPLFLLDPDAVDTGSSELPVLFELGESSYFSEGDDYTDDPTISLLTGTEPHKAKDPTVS

[19] = biological target: T5, Mannose-6-phosphate isomerase (Homo sapiens, UniProt P34949); assay: MPI inhibition at elevated mannose 6-phosphate – biochemical, fluorescence intensity, high mannose 6-phosphate, primary screen (AID 1220)
T5 sequence (P34949 whole entry): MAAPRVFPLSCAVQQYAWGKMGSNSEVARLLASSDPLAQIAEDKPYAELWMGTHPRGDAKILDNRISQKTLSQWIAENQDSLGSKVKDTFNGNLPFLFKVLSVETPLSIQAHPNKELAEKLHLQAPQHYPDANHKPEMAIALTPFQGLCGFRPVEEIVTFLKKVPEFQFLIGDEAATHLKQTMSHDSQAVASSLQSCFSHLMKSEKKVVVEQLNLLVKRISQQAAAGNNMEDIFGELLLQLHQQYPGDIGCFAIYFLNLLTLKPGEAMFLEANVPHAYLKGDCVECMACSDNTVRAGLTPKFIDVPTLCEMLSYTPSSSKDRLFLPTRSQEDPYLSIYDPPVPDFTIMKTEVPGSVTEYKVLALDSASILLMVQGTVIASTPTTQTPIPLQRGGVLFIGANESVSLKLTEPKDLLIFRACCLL

[20] = biological target: T6, Histone-lysine N-methyltransferase NSD2 (Homo sapiens, UniProt O96028); format: biochemical
T6 sequence (O96028 whole entry): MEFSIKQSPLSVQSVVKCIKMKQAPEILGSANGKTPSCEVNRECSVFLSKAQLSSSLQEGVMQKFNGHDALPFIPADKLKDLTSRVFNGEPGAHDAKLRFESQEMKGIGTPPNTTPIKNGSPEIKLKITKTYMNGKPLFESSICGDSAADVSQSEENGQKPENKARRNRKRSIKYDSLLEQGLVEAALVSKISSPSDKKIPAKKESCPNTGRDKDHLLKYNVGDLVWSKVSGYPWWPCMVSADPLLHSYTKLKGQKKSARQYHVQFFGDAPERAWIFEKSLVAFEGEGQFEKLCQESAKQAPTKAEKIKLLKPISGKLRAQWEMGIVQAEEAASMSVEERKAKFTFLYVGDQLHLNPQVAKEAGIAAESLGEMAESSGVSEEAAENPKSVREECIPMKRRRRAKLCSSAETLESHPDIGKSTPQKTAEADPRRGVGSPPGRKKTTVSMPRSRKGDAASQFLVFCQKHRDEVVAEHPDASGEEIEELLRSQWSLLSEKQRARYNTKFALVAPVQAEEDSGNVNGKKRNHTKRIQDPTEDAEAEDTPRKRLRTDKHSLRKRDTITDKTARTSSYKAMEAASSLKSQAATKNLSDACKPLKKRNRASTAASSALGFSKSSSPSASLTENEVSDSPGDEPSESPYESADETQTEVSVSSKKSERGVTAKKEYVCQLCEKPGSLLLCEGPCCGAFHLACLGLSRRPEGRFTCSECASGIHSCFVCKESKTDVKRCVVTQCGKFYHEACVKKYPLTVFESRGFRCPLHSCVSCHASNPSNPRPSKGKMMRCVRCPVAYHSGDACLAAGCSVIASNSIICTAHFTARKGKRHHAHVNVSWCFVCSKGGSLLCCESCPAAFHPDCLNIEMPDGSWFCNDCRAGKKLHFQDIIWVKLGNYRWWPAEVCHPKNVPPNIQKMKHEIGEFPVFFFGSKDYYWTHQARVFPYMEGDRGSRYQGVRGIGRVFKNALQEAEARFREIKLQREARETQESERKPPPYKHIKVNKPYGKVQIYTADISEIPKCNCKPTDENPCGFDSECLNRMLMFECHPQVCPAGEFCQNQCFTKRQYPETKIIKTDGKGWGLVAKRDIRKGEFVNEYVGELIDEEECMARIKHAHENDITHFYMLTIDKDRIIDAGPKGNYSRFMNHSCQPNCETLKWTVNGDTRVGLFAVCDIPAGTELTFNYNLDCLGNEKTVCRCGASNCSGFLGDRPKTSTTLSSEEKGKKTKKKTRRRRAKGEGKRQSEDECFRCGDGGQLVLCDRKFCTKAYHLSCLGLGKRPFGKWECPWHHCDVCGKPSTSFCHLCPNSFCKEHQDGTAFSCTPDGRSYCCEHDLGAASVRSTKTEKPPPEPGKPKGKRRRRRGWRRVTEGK

T2 sequence (P98170 whole entry): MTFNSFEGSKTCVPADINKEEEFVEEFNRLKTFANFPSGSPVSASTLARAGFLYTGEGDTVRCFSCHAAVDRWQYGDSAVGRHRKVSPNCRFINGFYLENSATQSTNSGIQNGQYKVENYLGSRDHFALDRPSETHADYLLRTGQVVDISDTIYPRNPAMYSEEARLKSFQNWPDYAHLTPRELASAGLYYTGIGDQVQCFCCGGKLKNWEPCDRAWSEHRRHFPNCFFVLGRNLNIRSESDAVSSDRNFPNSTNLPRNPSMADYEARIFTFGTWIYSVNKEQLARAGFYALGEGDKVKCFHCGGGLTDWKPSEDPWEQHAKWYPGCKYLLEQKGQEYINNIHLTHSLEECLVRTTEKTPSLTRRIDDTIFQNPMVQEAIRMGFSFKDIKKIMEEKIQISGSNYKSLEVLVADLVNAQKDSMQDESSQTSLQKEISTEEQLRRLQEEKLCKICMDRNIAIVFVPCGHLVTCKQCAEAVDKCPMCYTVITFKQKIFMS
Sequence of Glyceraldehyde-3-phosphate dehydrogenase (P04406 whole entry): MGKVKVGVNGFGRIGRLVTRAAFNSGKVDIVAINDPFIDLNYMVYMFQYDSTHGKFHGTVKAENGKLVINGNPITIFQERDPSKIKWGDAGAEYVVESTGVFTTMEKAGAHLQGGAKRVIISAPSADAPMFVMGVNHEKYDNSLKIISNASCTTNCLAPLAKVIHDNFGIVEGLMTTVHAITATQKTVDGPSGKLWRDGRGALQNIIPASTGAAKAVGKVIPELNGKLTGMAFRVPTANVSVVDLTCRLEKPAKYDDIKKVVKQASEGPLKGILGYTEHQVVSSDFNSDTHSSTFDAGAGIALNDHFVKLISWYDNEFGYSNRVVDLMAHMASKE
Sequence of Peroxisome proliferator-activated receptor gamma/Nuclear receptor coactivator 1 (P37231 whole entry): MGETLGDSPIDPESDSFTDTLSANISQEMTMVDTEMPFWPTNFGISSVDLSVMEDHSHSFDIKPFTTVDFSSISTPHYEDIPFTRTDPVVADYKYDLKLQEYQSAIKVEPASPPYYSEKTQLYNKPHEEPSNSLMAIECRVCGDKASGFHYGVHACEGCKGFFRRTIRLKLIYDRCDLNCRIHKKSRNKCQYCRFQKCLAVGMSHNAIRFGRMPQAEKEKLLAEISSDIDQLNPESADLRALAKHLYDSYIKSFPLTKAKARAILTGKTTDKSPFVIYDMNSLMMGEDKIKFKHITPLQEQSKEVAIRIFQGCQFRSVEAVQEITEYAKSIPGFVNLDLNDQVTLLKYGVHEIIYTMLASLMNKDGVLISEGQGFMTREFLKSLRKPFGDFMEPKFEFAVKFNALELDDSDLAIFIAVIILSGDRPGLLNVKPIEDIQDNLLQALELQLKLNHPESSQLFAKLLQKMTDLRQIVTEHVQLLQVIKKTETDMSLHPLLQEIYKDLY
Sequence of Peroxisome proliferator-activated receptor gamma/Nuclear receptor coactivator 1 (Q15788 whole entry, further chain): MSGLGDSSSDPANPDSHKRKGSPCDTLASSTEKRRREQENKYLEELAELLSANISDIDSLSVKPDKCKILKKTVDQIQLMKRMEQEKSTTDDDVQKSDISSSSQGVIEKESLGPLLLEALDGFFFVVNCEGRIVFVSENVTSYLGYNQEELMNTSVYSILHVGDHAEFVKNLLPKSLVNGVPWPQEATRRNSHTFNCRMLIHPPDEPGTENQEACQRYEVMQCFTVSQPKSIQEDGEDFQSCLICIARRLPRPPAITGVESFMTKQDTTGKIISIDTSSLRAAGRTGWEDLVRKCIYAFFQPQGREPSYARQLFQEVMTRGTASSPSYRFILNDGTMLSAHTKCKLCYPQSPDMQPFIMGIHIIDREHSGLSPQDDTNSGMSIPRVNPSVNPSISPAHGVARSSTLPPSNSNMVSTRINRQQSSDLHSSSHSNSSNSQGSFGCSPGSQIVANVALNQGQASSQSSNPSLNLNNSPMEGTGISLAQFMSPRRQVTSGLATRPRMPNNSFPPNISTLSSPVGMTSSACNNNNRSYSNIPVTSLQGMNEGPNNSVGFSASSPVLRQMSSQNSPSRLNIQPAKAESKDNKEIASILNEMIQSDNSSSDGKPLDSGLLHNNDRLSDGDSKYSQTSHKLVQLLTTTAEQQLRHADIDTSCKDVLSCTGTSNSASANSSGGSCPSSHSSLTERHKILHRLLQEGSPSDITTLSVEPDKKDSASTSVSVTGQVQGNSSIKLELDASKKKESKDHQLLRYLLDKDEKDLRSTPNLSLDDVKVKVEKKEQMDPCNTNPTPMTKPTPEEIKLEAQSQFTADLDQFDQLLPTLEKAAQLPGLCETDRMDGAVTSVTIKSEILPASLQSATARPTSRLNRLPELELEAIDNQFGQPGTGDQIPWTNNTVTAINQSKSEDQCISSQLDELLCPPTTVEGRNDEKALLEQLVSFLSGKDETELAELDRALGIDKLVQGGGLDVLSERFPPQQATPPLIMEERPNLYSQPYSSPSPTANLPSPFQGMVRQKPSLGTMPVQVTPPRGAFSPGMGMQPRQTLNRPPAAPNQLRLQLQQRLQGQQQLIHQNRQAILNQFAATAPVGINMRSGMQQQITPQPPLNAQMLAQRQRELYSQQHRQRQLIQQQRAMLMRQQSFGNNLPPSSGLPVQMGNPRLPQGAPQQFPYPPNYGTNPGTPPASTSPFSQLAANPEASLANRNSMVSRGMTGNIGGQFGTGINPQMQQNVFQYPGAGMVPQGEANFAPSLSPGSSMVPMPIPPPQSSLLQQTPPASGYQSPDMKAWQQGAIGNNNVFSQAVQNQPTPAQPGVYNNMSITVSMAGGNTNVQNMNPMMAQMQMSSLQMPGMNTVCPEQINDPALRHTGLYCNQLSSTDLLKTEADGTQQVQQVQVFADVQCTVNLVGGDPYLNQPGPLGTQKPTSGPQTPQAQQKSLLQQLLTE
Sequence of Peroxisome proliferator-activated receptor gamma/Nuclear receptor coactivator 3 (P37231 whole entry): as the sequence (P37231 whole entry) above
Sequence of Peroxisome proliferator-activated receptor gamma/Nuclear receptor coactivator 3 (Q9Y6Q9 whole entry, further chain): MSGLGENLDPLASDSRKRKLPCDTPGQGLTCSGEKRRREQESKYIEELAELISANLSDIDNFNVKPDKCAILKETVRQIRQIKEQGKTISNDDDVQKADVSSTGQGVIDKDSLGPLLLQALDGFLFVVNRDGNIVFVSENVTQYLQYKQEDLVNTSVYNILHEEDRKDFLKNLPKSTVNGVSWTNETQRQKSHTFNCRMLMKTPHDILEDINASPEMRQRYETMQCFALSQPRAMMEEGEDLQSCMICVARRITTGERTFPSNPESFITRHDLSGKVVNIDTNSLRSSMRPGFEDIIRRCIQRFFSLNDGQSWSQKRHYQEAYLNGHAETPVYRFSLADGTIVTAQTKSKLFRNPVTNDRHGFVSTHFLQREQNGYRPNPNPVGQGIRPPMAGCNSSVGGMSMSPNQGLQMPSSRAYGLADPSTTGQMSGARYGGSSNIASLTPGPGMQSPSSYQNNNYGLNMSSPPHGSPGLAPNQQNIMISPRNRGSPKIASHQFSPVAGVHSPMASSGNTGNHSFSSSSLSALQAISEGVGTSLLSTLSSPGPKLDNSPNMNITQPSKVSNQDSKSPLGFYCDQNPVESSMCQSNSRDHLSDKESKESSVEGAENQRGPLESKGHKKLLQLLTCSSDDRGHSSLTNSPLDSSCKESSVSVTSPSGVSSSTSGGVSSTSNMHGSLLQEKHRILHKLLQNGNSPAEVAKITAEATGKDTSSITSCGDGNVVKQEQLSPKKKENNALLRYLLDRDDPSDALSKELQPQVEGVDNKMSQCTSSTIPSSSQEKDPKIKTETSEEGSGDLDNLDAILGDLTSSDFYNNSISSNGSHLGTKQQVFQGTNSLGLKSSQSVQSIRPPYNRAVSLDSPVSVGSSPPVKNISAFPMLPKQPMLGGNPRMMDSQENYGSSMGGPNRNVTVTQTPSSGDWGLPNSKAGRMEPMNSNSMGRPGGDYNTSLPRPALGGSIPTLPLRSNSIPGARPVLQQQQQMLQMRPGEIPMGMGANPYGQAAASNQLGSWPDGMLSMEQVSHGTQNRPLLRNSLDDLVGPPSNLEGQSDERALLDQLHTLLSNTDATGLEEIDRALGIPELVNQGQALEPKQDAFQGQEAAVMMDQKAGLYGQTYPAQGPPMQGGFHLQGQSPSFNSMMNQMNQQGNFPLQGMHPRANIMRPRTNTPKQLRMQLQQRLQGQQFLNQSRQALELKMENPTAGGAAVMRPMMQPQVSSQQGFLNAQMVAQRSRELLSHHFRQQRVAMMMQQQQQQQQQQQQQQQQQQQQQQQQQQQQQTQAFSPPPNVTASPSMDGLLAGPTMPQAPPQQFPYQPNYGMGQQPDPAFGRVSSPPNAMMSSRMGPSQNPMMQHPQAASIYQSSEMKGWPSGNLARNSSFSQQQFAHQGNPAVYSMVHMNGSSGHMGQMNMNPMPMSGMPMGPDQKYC

Compound: COc1ccc2c3c(n(C)c2c1)[C@H](CO)N(C(=O)Nc1ccc(F)cc1)CC31CCN(C)CC1
- AC50 [1]: 54.1 µM (active)
- AC50 [2]: 2.67 µM (active)
- AC50 [3]: 4.61 µM (active)
- AC50 [4]: 4.11 µM (active)
- AC50 [5]: 2.87 µM (active)

Compound: COc1ccc(/N=C(\C)C2=C(O)SCC2=O)cc1
- AC50 [6]: 12.4 µM (active)

Compound: Oc1ccc(NCc2ccccc2OCc2ccccc2)cc1
- EC50 [7]: > 79.4 µM (not active)
- EC50 [8]: > 79.4 µM (not active)
- IC50 [9]: > 80 µM (inactive)
- EC50 [10]: > 79.4 µM (not active)
- CC50 [11]: 22.7 µM (active)

Compound: O=C(Nc1ccc(F)cc1)N1CCCCN2[C@H](CO)[C@H](c3ccc(C#Cc4ccccc4)cc3)[C@@H]2C1
- AC50 [1]: 80.3 µM (active)
- AC50 [2]: < 0.3 µM (active)
- AC50 [3]: 0.0214 µM (active)
- AC50 [4]: 0.0201 µM (active)
- AC50 [5]: 0.0167 µM (active)

Compound: COc1ccc(NC2c3ncccc3C(=O)N2Cc2cccs2)cc1 (stereo not given)
- IC50 [12]: 45.6 µM (active)

Compound: O=[N+]([O-])c1ccc(N2CCCC2)cc1N/N=C1\CN2CCC1CC2
- EC50 [13]: > 100 µM (active)

Compound: COc1cc(C)c(C)cc1S(=O)(=O)Nc1cccnc1
- IC50 [14]: > 100 µM (not active)

Compound: O=C(c1ccc(S(=O)(=O)NCC2CCCO2)cc1)N1CCN(c2cccc(Cl)c2)CC1 (stereo not given)
- IC50 [15]: > 100 µM (inactive)
- IC50 [16]: > 100 µM (not active)

Compound: COCCNC(=O)/C(C#N)=C/c1ccc(N2CCOCC2)o1
- EC50 [13]: > 100 µM (active)
- IC50 [17]: 113 µM (active)

Compound: COc1ccc(S(=O)(=O)N2CCCC2)c(C)c1C
- IC50 [15]: > 100 µM (inactive)
- IC50 [16]: > 100 µM (not active)

Compound: CCN1CCN(C2=C(Cl)C(=O)N(c3cccc(C(F)(F)F)c3)C2=O)CC1
- IC50 [14]: > 50 µM (inconclusive)

Compound: N#Cc1ccc(-c2ccc(Cl)cc2)nc1Oc1ccc(F)cc1
- EC50 [18]: > 260 µM (inconclusive)
- EC50 [7]: > 79.4 µM (not active)
- EC50 [8]: > 79.4 µM (not active)
- EC50 [10]: > 79.4 µM (not active)

Compound: Cc1ccc(O)c(/N=C/c2ccc(C)s2)c1
- IC50 [19]: > 50 µM (not active)

Compound: Cc1ccc(-n2c(=O)c3sccc3n(Cc3cc(=O)n4ccccc4n3)c2=O)cc1
- IC50 [12]: 26.4 µM (active)

Compound: CCN(CC)CCNC(=O)/C(=C\c1cccn1C)NC(=O)c1cccs1
- IC50 [15]: > 100 µM (inactive)
- AC50 [20]: > 20 µM (inactive)
- IC50 [16]: > 100 µM (not active)
